# Biological target: T1, CNOT7 (Homo sapiens, UniProt Q9UIV1)
# T1 construct: biotin (biotinylated); purchased Ichor Life Sciences
# Experiment: Binding of compounds to CNOT7 by surface plasmon resonance (SPR)
# Settings: Table 4; dissociation constant for CNOT7
# Description: Surface plasmon resonance (SPR) was used to evaluate the binding of compounds to CNOT7. Experiments were performed on a Biacore 8K (Cytiva) with a running buffer consisting of 20 mM HEPES pH7.5, 100 mM KCl, 3 mM MgCl2, 1 mM TCEP, 0.05% tween-20, 2% DMSO. Briefly, biotinylated CNOT7 (Ichor Life Sciences) at a concentration of 70 μg/ml was immobilized to a streptavidin coated chip (Cytiva sensor chip SA) for 1200 sec at a flow rate of 5 μl/min (typical immobilization level 7,500 RU). For compound binding experiments, various concentrations of analyte were flowed over the chip with 120 sec association phase, 120 sec dissociation phase, at a flow rate of 30 ul/min and collection rate of 10 Hz. Reference channel subtraction and solvent correction were applied to all sensograms prior to data analysis. Sensograms were fit to 1:1 steady state affinity model. FIGS. 3 and 4 show the binding of exemplary compounds and the AMP control (a known CNOT7 active site binder) at various concentrations to CNOT7.
# T1 sequence (Q9UIV1 whole entry): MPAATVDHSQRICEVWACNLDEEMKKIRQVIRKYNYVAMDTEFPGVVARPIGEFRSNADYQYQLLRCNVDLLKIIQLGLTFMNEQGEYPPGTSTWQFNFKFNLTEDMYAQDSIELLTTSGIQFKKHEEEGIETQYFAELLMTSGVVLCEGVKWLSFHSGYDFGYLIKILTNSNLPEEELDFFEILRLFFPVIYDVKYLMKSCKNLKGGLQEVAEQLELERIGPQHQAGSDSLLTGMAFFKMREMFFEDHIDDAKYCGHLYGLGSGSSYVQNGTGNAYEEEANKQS
row,Kd,SMILES
1,> 25 µM,O=C(CSc1cc[nH]c(=O)n1)NCc1ccc2c(c1)OCO2 [Compound I-2]
2,> 25 µM,COc1cccc(CNC(=O)CSc2nc(=O)[nH]cc2C)c1 [Compound I-5]
3,> 25 µM,Cc1c[nH]c(=O)nc1SCC(=O)N(C)Cc1ccc2c(c1)OCO2 [Compound I-6]

# Same assay, conditions: Table 5; dissociation constant for CNOT7 by SPR
row,SMILES,Kd
1,COc1ccc([C@H](C)NC(=O)CSc2nc(=O)[nH]cc2C)cc1 [Compound I-26],> 25 µM
2,COc1ccc([C@@H](C)NC(=O)CSc2nc(=O)[nH]cc2C)cc1 [Compound I-27],1 to 25 µM
3,COc1ccc(C(C)NC(=O)CSc2nc(=O)[nH]cc2C)cc1 (centres unmarked) [Compound I-28],1 to 25 µM
4,COc1ccc(CNC(=O)COc2nc(=O)[nH]cc2C)cc1 [Compound I-31],> 25 µM
5,COc1ccc(CNC(=O)CNc2nc(=O)[nH]cc2C)cc1 [Compound I-32],> 25 µM
6,COc1ccc(CNC(=O)CCc2nc(=O)[nH]cc2C)cc1 [Compound I-34],1 to 25 µM
7,COc1ccc(CNC(=O)CSc2nc(=O)[nH]cc2C)nc1 [Compound I-42],1 to 25 µM
8,COc1ccc(CNC(=O)CSc2nc(=O)[nH]cc2C)cn1 [Compound I-43],> 25 µM
9,COc1cnc(CNC(=O)CSc2nc(=O)[nH]cc2C)nc1 [Compound I-44],1 to 25 µM
10,COc1ccc(C(CO)NC(=O)CSc2nc(=O)[nH]cc2C)cc1 (centres unmarked) [Compound I-46],1 to 25 µM
11,COc1ccc([C@@H](CO)NC(=O)CSc2nc(=O)[nH]cc2C)cc1 [Compound I-48],1 to 25 µM
12,Cc1c[nH]c(=O)nc1SCC(=O)NCc1ccc2c(c1)OCCO2 [Compound I-50],1 to 25 µM
13,Cc1c[nH]c(=O)nc1SCC(=O)NCc1ccc2oc(=O)[nH]c2c1 [Compound I-51],> 25 µM
14,Cc1c[nH]c(=O)cc1SCC(=O)NCc1ccc2c(c1)NC(=O)CO2 [Compound I-52],> 25 µM
15,Cc1c[nH]c(=O)nc1SCC(=O)NCc1ccc2c(c1)NCCO2 [Compound I-54],> 25 µM
16,Cc1c[nH]c(=O)nc1SCC(=O)NCc1ccc2c(c1)N(C)CCO2 [Compound I-55],> 25 µM
17,Cc1c[nH]c(=O)nc1SCC(=O)NCc1ccc2c(c1)CC(=O)N2 [Compound I-56],1 to 25 µM
18,Cc1c[nH]c(=O)nc1SCC(=O)NCc1ccc2c(c1)NC(=O)C2 [Compound I-57],1 to 25 µM
19,"COCCOCCC(Sc1nc(=O)[nH]cc1C)C(=O)NCc1ccc(OC)cc1 (centres unmarked) [Compound I-165, 4-(2-methoxyethoxy)-N-[(4-methoxyphenyl)methyl]-2-[(5-methyl-2-oxo-1H-pyrimidin-4-yl)sulfanyl]butanamide]",1 to 25 µM
20,"COCCOCC[C@@H](Sc1nc(=O)[nH]cc1C)C(=O)NCc1ccc(OC)cc1 [Compound I-166, (2R)-4-(2-methoxyethoxy)-N-[(4-methoxyphenyl)methyl]-2-[(5-methyl-2-oxo-1H-pyrimidin-4-yl)sulfanyl]butanamide]",1 to 25 µM
21,"COCCOCC[C@H](Sc1nc(=O)[nH]cc1C)C(=O)NCc1ccc(OC)cc1 [Compound I-167, (2S)-4-(2-methoxyethoxy)-N-[(4-methoxyphenyl)methyl]-2-[(5-methyl-2-oxo-1H-pyrimidin-4-yl)sulfanyl]butanamide]",1 to 25 µM
22,COc1ccc(CNC(=O)C(C)Sc2nc(=O)[nH]cc2C)cc1 (centres unmarked) [Compound I-168],1 to 25 µM
23,COCC(Sc1nc(=O)[nH]cc1C)C(=O)NCc1ccc(OC)cc1 (centres unmarked) [Compound I-169],1 to 25 µM
24,CCC(Sc1nc(=O)[nH]cc1C)C(=O)NCc1ccc(OC)cc1 (centres unmarked) [Compound I-170],1 to 25 µM
25,COCC(Sc1nc(=O)[nH]cc1C)C(=O)NCc1ccc2c(c1)CC(=O)N2 (centres unmarked) [Compound I-191],0.1 to 1 µM

# Next, values leading:
row,Kd,SMILES
1,> 25 µM,COc1ccc(C(C)NC(=O)C2CC2c2nc(=O)[nH]cc2C)cc1 (mixture of isomers) [Compound I-239]
2,> 25 µM,COc1ccc(C(C)NC(=O)C2CC2c2nc(=O)[nH]cc2C)cc1 (mixture of isomers) [Compound I-240]
3,1 to 25 µM,COCC(Sc1nc(=O)[nH]cc1C)C(=O)NC(C)c1ccc2c(c1)CC(=O)N2 (centres unmarked) [Compound I-192]
4,1 to 25 µM,COC[C@H](Sc1nc(=O)[nH]cc1C)C(=O)N[C@H](C)c1ccc2c(c1)CC(=O)N2 [Compound I-193]
5,1 to 25 µM,COc1ccc(C2(NC(=O)CSc3nc(=O)[nH]cc3C)CC2)cc1 [Compound I-197]
6,> 25 µM,COc1ccc2c(c1)CN(C(=O)CSc1nc(=O)[nH]cc1C)C2 [Compound I-205]
7,1 to 25 µM,CC[C@@H](NC(=O)CSc1nc(=O)[nH]cc1C)c1ccc(OC)cc1 [Compound I-217]
8,1 to 25 µM,COc1ccc([C@H](NC(=O)CSc2nc(=O)[nH]cc2C)C(C)C)cc1 [Compound I-218]
9,1 to 25 µM,Cc1c[nH]c(=O)nc1SCC(=O)N[C@@H](c1ccc(O)cc1)C1CC1 [Compound I-219]
10,1 to 25 µM,COc1ccc([C@H](NC(=O)CSc2nc(=O)[nH]cc2C)C(F)(F)F)cc1 [Compound I-221]
11,> 25 µM,COc1ccc(C(C)NC(=O)CSc2nc(=O)[nH]cc2C2CC2)cc1 (centres unmarked) [Compound I-225]
12,1 to 25 µM,CCc1c[nH]c(=O)nc1SCC(=O)N[C@H](C)c1ccc(OC)cc1 [Compound I-226]
13,1 to 25 µM,COc1ccc([C@@H](C)NC(=O)CSc2nc(=O)[nH]cc2F)cc1 [Compound I-228]
14,> 25 µM,COc1ccc(C(C)NC(=O)CSc2nc(=O)[nH]cc2OC)cc1 (centres unmarked) [Compound I-230]
15,> 25 µM,COc1ccc(C(C)NC(=O)C2CC2c2nc(=O)[nH]cc2C)cc1 (centres unmarked) [Compound I-238]
16,> 25 µM,COc1ccc([C@@H](C)NC(=O)CSc2[nH]c(=O)[nH]c(=O)c2C)cc1 [Compound I-242]
17,1 to 25 µM,COc1ccc([C@@H](C)NC(=O)CSc2nc(=O)[nH]cc2C)cc1 [Compound I-247]
18,1 to 25 µM,COc1ccc(C(C)(C)NC(=O)CSc2nc(=O)[nH]cc2C)cc1 [Compound I-249]
19,> 25 µM,COc1ccc(CN2CCC(Sc3nc(=O)[nH]cc3C)C2=O)cc1 (centres unmarked) [Compound I-252]
20,> 25 µM,COc1ccc(CN2CC[C@H](Sc3nc(=O)[nH]cc3C)C2=O)cc1 [Compound I-254]
21,1 to 25 µM,COCC(Sc1nc(=O)[nH]cc1C)C(=O)NC(C)c1ccc(OC)cc1 (centres unmarked) [Compound I-266]
22,1 to 25 µM,COCC(Sc1nc(=O)[nH]cc1C)C(=O)NC(C)c1ccc(OC)cc1 (centres unmarked) [Compound I-267]
23,1 to 25 µM,CCOc1ccc([C@@H](C)NC(=O)CSc2nc(=O)[nH]cc2C)cc1 [Compound I-277]
24,> 25 µM,COc1ccc(CN(CCO)C(=O)CSc2cc(=O)[nH]cc2C)cc1 [Compound I-287]
25,1 to 25 µM,Cc1c[nH]c(=O)nc1SCC(=O)NC(C)c1ccc(S(C)(=O)=O)cc1 (centres unmarked) [Compound I-294]
26,1 to 25 µM,COc1ccc([C@@H](C)NC(=O)CSc2nc(=O)[nH]cc2Cl)cc1F [Compound I-306]
27,0.1 to 1 µM,COc1ccc(C2(NC(=O)CSc3nc(=O)[nH]cc3Cl)CC2)cc1F [Compound I-307]
28,1 to 25 µM,C[C@@H](NC(=O)CSc1nc(=O)[nH]cc1Cl)c1ccc(Cl)c(F)c1 [Compound I-314]

# Same assay, conditions: Table 6; dissociation constant for CNOT7 by SPR
row,SMILES,Kd
1,COc1cnc(CNC(=O)CSc2nc(=O)[nH]cc2C)cn1 [Compound I-45],1 to 25 µM
2,Cc1c[nH]c(=O)nc1SCC(=O)NCc1ccc2c(c1)COC2 [Compound I-58],> 25 µM
3,COCCOC[C@@H](Sc1nc(=O)[nH]cc1C)C(=O)N[C@H](C)c1ccc(OC)cc1 [Compound I-172],1 to 25 µM
4,COCCOC[C@H](Sc1nc(=O)[nH]cc1C)C(=O)N[C@H](C)c1ccc(OC)cc1 [Compound I-173],1 to 25 µM
5,Cc1c[nH]c(=O)nc1SCC(=O)N[C@H](C)c1ccc2c(c1)CC(=O)N2 [Compound I-190],1 to 25 µM

# Now from value to molecule:
row,Kd,SMILES
1,0.1 to 1 µM,COc1ccc2c(c1)CCN(C(=O)CSc1nc(=O)[nH]cc1C)[C@@H]2C [Compound I-199]
2,1 to 25 µM,C#CCOCCOCCOCCOC[C@@H]1Cc2cc(OC)ccc2CN1C(=O)CSc1nc(=O)[nH]cc1C [Compound I-203]
3,1 to 25 µM,COc1ccc([C@@H](C)NC(=O)CSc2nc(=O)[nH]cc2Cl)cc1 [Compound I-229]
4,1 to 25 µM,COc1ccc(C(C)NC(=O)CSc2nc(=O)[nH]cc2C)cc1F (centres unmarked) [Compound I-244]
5,0.1 to 1 µM,COc1ccc([C@@H](C)NC(=O)CSc2nc(=O)[nH]cc2C)c(C)c1 [Compound I-248]
6,1 to 25 µM,COc1ccc([C@](C)(CO)NC(=O)CSc2nc(=O)[nH]cc2C)cc1 [Compound I-250]
7,1 to 25 µM,COc1ccc([C@@H](C)NC(=O)[C@@H](CCOCCOCCOCCN=[N+]=[N-])Sc2cc[nH]c(=O)n2)cc1 [Compound I-261]
8,1 to 25 µM,COc1ccc([C@@H](C)NC(=O)CSc2cc(=O)[nH]cc2C)nc1 [Compound I-281]
9,1 to 25 µM,COc1cc(F)c([C@@H](C)NC(=O)CSc2nc(=O)[nH]cc2Cl)cc1F [Compound I-311]
10,1 to 25 µM,COc1cc(F)c([C@@H](C)NC(=O)CSc2nc(=O)[nH]cc2Cl)c(F)c1 [Compound I-312]
11,1 to 25 µM,COc1c(F)cc([C@@H](C)NC(=O)CSc2nc(=O)[nH]cc2Cl)cc1F [Compound I-313]
12,1 to 25 µM,Cc1c[nH]c(=O)nc1SCC(=O)NC(C)c1ccc2c(c1)CC(=O)N2 (centres unmarked) [Compound I-322]
13,1 to 25 µM,COCC(Sc1nc(=O)[nH]cc1Cl)C(=O)NC(C)c1ccc2c(c1)CC(=O)N2 (centres unmarked) [Compound I-323]
14,1 to 25 µM,COc1ccc([C@@H](C)NC(=O)C2(Sc3nc(=O)[nH]cc3C)CCC2)cc1 [Compound I-324]

# Same assay, conditions: dissociation constant by SPR, Table 7
row,Kd,SMILES
1,1 to 25 µM,COCC(Sc1nc(=O)[nH]cc1Cl)C(=O)NC(C)c1ccc2c(c1)CC(=O)N2 (centres unmarked) [Compound I-323]
2,0.1 to 1 µM,COc1ccc([C@@H](C)NC(=O)C2(Sc3nc(=O)[nH]cc3C)CCC2)cc1 [Compound I-324]

# From US20260199485A1, “RNA DEGRADERS AND USES THEREOF” (Arrakis Therapeutics, Inc., priority 2022, published 2026)
